Patent US12590100B2, “Tetrahydro-spiroindoline-pyrrolopyrrole-triones inhibitors of the NRF2-β-TrCP interaction for use in the treatment of fatty liver disease” (Universidad Autonoma De Madrid, priority 2021, dated 2026)

Key:
NRF2 [1] = experiment: NRF2 and HO-1 protein levels in mouse tissues after IP treatment; assay type: in vivo; details: C57BL/6 mice, single IP 50 mg/kg, 120 min
Protocol: FIG. 9. PHAR activates NRF2 and HO-1 in liver. A), UV and MS spectrum derived from the HPLC-MS analysis of PHAR dissolved in methanol for the identification of peaks associated with the compound. A blue rectangle surrounds the mass associated with PHAR. (B-D), the mice were treated with the vehicle (Tween-80+PBS, 1:13), 50 mg/kg of PHAR, or 50 mg/kg of SFN (saline) as a positive control by means of intraperitoneal (IP) injection for 2 hours. B), HPLC-MS UV and MS spectra derived from representative liver samples of both experimental groups used for determining PHAR levels in the liver 120 min after a single IP injection of 50 mg/kg. A blue rectangle surrounds the mass associated with PHAR. C), representative immunoblots showing NRF2, HO1, and LAMINB protein levels as the liver extract loading control. D), densitometric analysis of NRF2 protein levels of the representative immunoblots shown in (C), expressed as a ratio of NRF2/LAMINB. Statistical analysis was performed with one-way ANOVA followed by the Bonferroni test to compare inter-group differences. ***p<0.001 vs. vehicle. E) and F), the mice were treated daily with vehicle (Tween-80+PBS, 1:13) or 50 mg/kg of PHAR by means of intraperitoneal injection for 5 days. E), representative immunoblots showing NRF2, HO1, and LAMINB protein levels as loading control in brain, liver and kidney. F), densitometric analysis of NRF2 and HO1 protein levels in the liver tissue of the representative immunoblots shown in (E), expressed as a ratio of NRF2/LAMINB or HO1/LAMINB levels. Statistical analysis was performed with a Student t test to compare inter-group differences. **p<0.01 vs. vehicle.
Once the mechanism of action of PHAR was deciphered, the capacity thereof to induce NRF2 levels in a murine model was evaluated. C57BL/6 mice received a single intraperitoneal (IP) injection of 50 mg/kg PHAR (Tween-80+PBS, 1:13) or 50 mg/kg of SFN (saline) as a positive control. The UV spectrum derived from the HPLC-MS study of the PHAR compound dissolved in methanol alone helped the identification of the peak associated with the compound for subsequent identification in the tissue analysis. […] Taking this as a reference point, liver tissue analysis was performed to check for the presence of PHAR therein.
For this reason, C57BL/6 mice were treated daily by IP route for 5 days with 50 mg/kg of vehicle or 50 mg/kg of PHAR.

[2] = test system: transcriptional activity of NRF2; experiment: ARE luciferase reporter assay in MCF-7 c32 ARE-LUC cells; assay type: cell-based; details: 9 μM, 16 h
Protocol: FIG. 4. […] MEFs in serum-depleted conditions were subjected to (A-C) 1 μM, 3 μM, or 10 μM of PHAR and 10 μM of SFN as a positive control for 16 h; or (D-F) 10 μM of PHAR for the indicated times. In both experiments, 0.1% DMSO was used as a vehicle. A), representative immunoblots of NRF2, HO1, KEAP1, LAMINB, and GAPDH as loading controls. B) and C), densitometric analysis of NRF2 and HO1 protein levels of the representative immunoblots depicted in (A), expressed as a ratio of NRF2/LAMINB or HO1/GAPDH. The data is depicted as means±SEM (n=3). Statistical analysis was performed with one-way ANOVA followed by the Bonferroni test to check inter-group differences. *p<0.05; ***p<0.001 vs. 0. D), representative immunoblots of NRF2, HO1, KEAP1, LAMINB, and GAPDH as loading controls. E) and F), Densitometric analysis of NRF2 and HO1 protein levels of the representative immunoblots of (D), expressed as a ratio of NRF2/LAMINB or HO1/GAPDH. The data is depicted as means±SEM (n=3). Statistical analysis was performed with one-way ANOVA followed by the Bonferroni test to check inter-group differences. *p<0.05; ***p<0.001 vs. 0. […] Luciferase activity was measured after 16 h of treatment. […] The mRNA levels of Hmox1, Nqo1, Aox1, Glc, and Gclm after 8 h of treatment were determined by means of pRT-PCR and normalized by means of average LaminB, Gapdh, and β-actin. […]

NRF2 [3] = experiment: NRF2 and HO-1 protein levels in MEFs (immunoblot); assay type: cell-based, mouse; details: SFN 10 μM
Protocol: FIG. 4. […] MEFs in serum-depleted conditions were subjected to (A-C) 1 μM, 3 μM, or 10 μM of PHAR and 10 μM of SFN as a positive control for 16 h; or (D-F) 10 μM of PHAR for the indicated times. In both experiments, 0.1% DMSO was used as a vehicle. A), representative immunoblots of NRF2, HO1, KEAP1, LAMINB, and GAPDH as loading controls. B) and C), densitometric analysis of NRF2 and HO1 protein levels of the representative immunoblots depicted in (A), expressed as a ratio of NRF2/LAMINB or HO1/GAPDH. The data is depicted as means±SEM (n=3). Statistical analysis was performed with one-way ANOVA followed by the Bonferroni test to check inter-group differences. *p<0.05; ***p<0.001 vs. 0. D), representative immunoblots of NRF2, HO1, KEAP1, LAMINB, and GAPDH as loading controls. E) and F), Densitometric analysis of NRF2 and HO1 protein levels of the representative immunoblots of (D), expressed as a ratio of NRF2/LAMINB or HO1/GAPDH. The data is depicted as means±SEM (n=3). Statistical analysis was performed with one-way ANOVA followed by the Bonferroni test to check inter-group differences. *p<0.05; ***p<0.001 vs. 0. G), Reporter MCF-7 c32 ARE-luc cells were subjected to 1 μM, 3 μM, or 9 μM of PHAR and 10 μM of SFN as a positive control. 0.1% DMSO was used as a vehicle. Luciferase activity was measured after 16 h of treatment. The data is depicted as means±SEM (n=3). Statistical analysis was performed with one-way ANOVA followed by the Bonferroni test to check inter-group differences. **p<0.01; ***p<0.001 vs. 0. H), MTT assay to evaluate cell viability/toxicity after treatments. I), Serum-deprived MEFs were subjected to 10 μM of PHAR. The mRNA levels of Hmox1, Nqo1, Aox1, Glc, and Gclm after 8 h of treatment were determined by means of pRT-PCR and normalized by means of average LaminB, Gapdh, and β-actin. The data is depicted as means±SEM (n=3). Statistical analysis was performed with the Student's T test. *p<0.05; **p<0.01 ***p<0.001 vs. 0.
In order to empirically determine if PHAR activates NRF2, mouse embryo fibroblasts (MEFs) were treated with several doses of the compound (1 μM, 3 μM, and […]) for 16 h and with 10 μM of sulforaphane (SFN), one of main electrophilic activators of NRF2, used as a positive control.
Moreover, a time course of NRF2 activation with PHAR (10 μM for 2, 4, and 8 h) or with SFN (10 μM, 8 h) was done as a positive control.

What does the source list for `C[S+]([O-])CCCCN=C=S` (stereo not shown) [SFN, sulforaphane, reference compound]?
liver NRF2 levels (NRF2 [1]): accumulation caused by SFN; increase in luciferase activity [2]: similar; NRF2 accumulation (NRF2 [3]; 16 h, PHAR 1, 3, 9 μM): accumulation induced by SFN; NRF2 accumulation, time course (NRF2 [3]; PHAR 10 μM for 2, 4, 8 h, 8 h): induction generated by SFN
